Literature values, collected in patent publication US20240398745A1, “COMPOSITION AND METHODS OF TREATMENT USING […] - ENHANCED SUPPLEMENTATION” (Xygenyx Inc., priority 2023, published 2024).
Square brackets hold non-standard residues; d marks the D form. Peptide text beside a SMILES is read from it. Cit = NC(=O)NCCC[C@H](N)C(=O)O

Legend:
[1] = in vivo
[2] = α-tocopherol taken as 1.0
skin [3] = conditions: topical, concentrations 0.5-5%
[4] = test system: wide dynamic range neurons in the ventroposterolateral nucleus of the thalamus; conditions: believed
[5] = in vivo; remark: listed apart in the source
[6] = even when dietary intake occurs in equal portions
skin [7] = conditions: topical formulations, within four weeks of treatment

HGH: hormone comprising a peptide chain that is synthesized in the pituitary gland
biological half-life [1]: 10-20 minutes

Cc1c(C)c2c(c(C)c1O)CC[C@@](C)(CCC[C@H](C)CCC[C@H](C)CCCC(C)C)O2 [α-tocopherol]
reduction of risk of coronary disease (dietary supplementation, doses up to 400 IU/day): up to 34%
reduction of risk of developing neurodegenerative diseases such as Alzheimer's Syndrome or dementia (dietary supplementation, doses up to 400 IU/day, controlled trials): ≤ 24%
reduction in the development of age-related cataracts (in combination with 10-20 mg β-carotene and 400-500 mg vitamin C, doses around 400-500 IU): 23%

Cc1cc(O)cc2c1O[C@](C)(CCC[C@H](C)CCC[C@H](C)CCCC(C)C)CC2 [δ-tocopherol]
relative biological activity [2]: 0.03

C=CCCCCCCCCC(=O)N[C@@H](Cc1ccccc1)C(=O)O [UP, Undecylenoyl phenylalanine]
time of treatment to skin lightening effects (skin [3]): ≥ 7 days

CCCCCc1cc(O)c2c(c1)OC(C)(C)C1CCC(C)=CC21 (stereo not drawn) [THC, Δ-9-tetrahydrocannabinol]
power in mediating pain relative to morphine [4]: ten times more powerful than morphine

Cc1cc(O)c(C)c2c1O[C@](C)(CCC[C@H](C)CCC[C@H](C)CCCC(C)C)CC2 [β-tocopherol]
relative biological activity [2]: 0.5

CCNC(=O)CC[C@H](N)C(=O)O [Theanine]
dose generally considered safe and well-tolerated [5]: up to 400 mg per day

Cc1c(O)cc2c(c1C)O[C@](C)(CCC[C@H](C)CCC[C@H](C)CCCC(C)C)CC2 [γ-tocopherol]
relative biological activity [2]: 0.1
concentration in vivo relative to α-tocopherol [6]: roughly 10%

CC[C@H](C)[C@H](NC(=O)[C@H](CC(=O)O)NC(=O)[C@@H](N)CCCCN)C(=O)N[C@@H](CCCNC(N)=O)C(N)=O [tripeptide-10 citrulline, Tripeptide-10 citrulline] (H-KDI[Cit]-NH2)
improvement of suppleness (skin [7]): ≤ 54%
